# Measured values published in patent publication US9901573B2, “Compositions, methods, and kits for regulating energy metabolism” (NuSirt Sciences, Inc., priority 2012, dated 2018).
# Test system: 3T3-L1 adipocytes
# Experiment: Fatty acid oxidation (O2 consumption response to palmitate) in adipocytes
# Format: cell-based
# Conditions: FIG. 8, % change from control
# Description: Cell Culture: C2C12 and 3T3-L1 preadipocytes (American Type Culture Collection) were plated at a density of 8000 cells/cm^2 (10 cm^2 dish) and grown in Dulbecco's modified eagle's medium (DMEM) containing 10% fetal bovine serum (FBS), and antibiotics (growth medium) at 37° C. in 5% CO2. Confluent 3T3-L1 preadipocytes were induced to differentiate with a standard differentiation medium consisting of DMEM medium supplemented with 10% FBS, 250 nM dexamethasone, 0.5 mM 3-Isobutyl-1-methylxanthine (IBMX) and 1% penicillin-streptomycin. Preadipocytes were maintained in this differentiation medium for 3 days and subsequently cultured in growth medium. Cultures were re-fed every 2-3 days to allow >90% cells to reach fully differentiation before conducting chemical treatment. […]
# Fatty acid oxidation: Cellular oxygen consumption was measured using a Seahorse Bioscience XF24 analyzer (Seahorse Bioscience, Billerica, Mass.) in 24-well plates at 37° C., as described by Feige et al (1) with slight modifications. […] Data for each sample were normalized to the pre-palmitate injection baseline for that sample and expressed as % change from that baseline. […] The area under of the curve of O2 consumption change from baseline for each sample was then calculated and used for subsequent analysis.
structure (smiles),measurement,value
"CC(C)C[C@H](N)C(=O)O [Leucine, leucine]",increase in fatty acid oxidation,181%
